Assay results as given in PubChem BioAssay AID651884 (Southern Research Specialized Biocontainment Screening …, 2012).

Each compound was assayed on VEEV TC-83 infected cells, viral CPE inhibition (assay: Cell based counter screen, viral CPE inhibition, VEEV strain KU V3526 (AID 651884)).

Compound | IC50 [nM]
CCN1CCN(Cc2nc3ccc([N+](=O)[O-])cc3c(=O)n2-c2ccccc2F)CC1 | 325
CCN1CCN(C)CC1=Nc1ccc([N+](=O)[O-])cc1C(=O)Nc1ccccc1 | 20
CN1CCN(C)C(=Nc2ccc([N+](=O)[O-])cc2C(=O)Nc2ccccc2)C1 | 19.4
COc1ccc(NC(=O)c2cc([N+](=O)[O-])ccc2N=C2CN(C)CCN2C)cc1 | 17
